Data published in patent US20130178472A1, “ARYLSULFONAMIDE PYRIDINE-PYRIDINONE DERIVATIVES, PREPARATION OF SAME, AND THERAPEUTIC USE THEREOF” (SANOFI, priority 2010, published 2013).

Tests used:
[1] = biological target: T1, active mutant recombinant S6K1 (1-421, T412E) (Homo sapiens, UniProt P23443, T412E); experiment: Inhibition of p70S6 kinase activity: phosphorylation of S6 peptide substrate, [γ-33]ATP filter assay; assay type: biochemical; details: peptide AKRRRLSSLRA 50 μM, ATP 100 μM, 20 minutes at 30° C.; read-out: IC50, concentration which inhibits 50% of the phosphorylation of the peptide substrate derived from the S6 ribosomal protein
T1 construct: S6K1 (1-421, T412E); purchased Upstate USA, Inc. Charlottesville Va; 14-333
Excerpt: (§1) The inhibitory activity on the PDGF receptor kinases is given by the concentration which inhibits 50% of the proliferation activity of Baf3 tel/PDGF cells respectively. The inhibitory activity on p70S6 kinase is given by the concentration which inhibits 50% of the phosphorylation of the peptide substrate derived from the S6 ribosomal protein (AKRRRLSSLRA, Upstate).
Measurement of the inhibition of the p70S6 kinase activity:
The active mutant recombinant S6K1 (1-421, T412E) (ref. 14-333, Upstate USA, Inc. Charlottesville Va.) (specific activity 298 U/mg) is incubated (20 mU/10 μl) with 8 concentrations of inhibitors solubilized at 1 mM in DMSO in the presence of the peptide substrate obtained from the S6 ribosomal protein (AKRRRLSSLRA, Upstate) (50 μM final) and of a cold ATP mixture (100 μM) and 1 μCi/well of [γ-33]ATP (NEN, Courtaboeuf, France). The enzyme reaction is carried out in a final volume of 50 μl in a 96-well filter plate (MultiScreen TM-PH opaque plate with Phospho-Cellulose cat # MAPHNOB, Millipore) previously soaked with 100 μl 1M Tris buffer pH 7.4 by adding the reagents of the S6 Kinase Assay kit (#17-136, Upstate) in the following order:
10 μl of 5% DMSO or various inhibitors at a 5× concentration
30 μl of reaction mixture containing the ADBI buffer (#20-108 Upstate, composed of 20 mM MOPS pH 7.2, 25 mM beta-glycerol phosphate, 5 mM EGTA, 1 mM sodium orthovanadate, 1 mM dithiothreitol), S6K1 (20 mU) and 250 μM peptide substrate [AKRRRLSSLRA] in ADBI buffer (#20-122, Upstate). The reaction is started by adding 10 μl of cold ATP/^33γATP mixture (1 μCi/50 μl as 500 μM ATP in ADBI buffer, 75 mM MgCl2) and then incubated for 20 minutes at 30° C. before being stopped by adding 20 μl of 7.5% phosphoric acid. The reaction mixture is filtered by aspiration under vacuum (Vacuum manifold, Millipore), the wells are rinsed twice with 200 μl of 7.5% phosphoric acid (2 minutes) and then twice with 200 μl of distilled H2O (2 minutes). After drying the plate, 25 μl/well of scintillant (Optiphase Super Mix, Wallac) are added and the radioactivity is detected with the Micro-Beta scintillation reader (Wallac). A negative control (all the reagents without peptide substrate) is prepared in order to determine the nonspecific binding of ^33γATP to the phosphocellulose filter which is subtracted from the experimental results.
It is thus apparent that the compounds of the invention have an inhibitory activity on the p70S6 kinase activity. This activity is given by the concentration which inhibits 50% of the phosphorylation of the peptide substrate derived from the S6 ribosomal protein (AKRRRLSSLRA, Upstate).

[2] = biological target: T2, fusion protein Tel/PDGF-R beta (BaF3 Tel/PDGF cells) (Homo sapiens, UniProt P09619); experiment: Inhibition of PDGF beta receptor tyrosine kinase activity: proliferation of BaF3 Tel/PDGF cells; assay type: cell-based, murine; details: 72 h incubation, viable cells by cellular ATP (CellTiter-Glo); read-out: IC50, concentration which inhibits 50% of the proliferation of the Baf3 tel/PDGF cells
T2 construct: the transmembrane and intracellular part of the PDGF-R beta receptor; N-terminal part of transcription factor Tel (ETV6, own knowledge: UniProt P41212), containing the oligomerization domain; expressed in transfected cells; host or cells: murine hematopoietic cell line BaF/3 (BaF3 Tel/PDGF); the other entry of the earlier key: ETV6 (P41212, Transcription factor ETV6)
Excerpt: as §1
Measurement of the inhibition of the PDGF beta receptor (PDGF-Rβ) tyrosine kinase activity (Baf-3 tel/PDGFRβ):
This test consists in evaluating the effects of the compounds on the PDGF beta receptor tyrosine kinase activity.
The inhibitory effect of the compounds according to the invention toward the PDGF-R receptor tyrosine kinase activity was evaluated on the hematopoietic murine cell line BaF/3 transfected with a plasmid encoding the fusion protein Tel/PDGF-R beta. This fusion protein is found in chronic myelomonocytic myeloid leukemias (CMML). It comprises the N-terminal part of the transcription factor Tel and the transmembrane and intracellular part of the PDGF-R beta receptor. This fusion protein is present in dimerized form (presence of an oligomerization domain in the N-terminal part of Tel) and therefore leads to the constitutive activity of the PDGF-R beta kinase domain. This BaF3 Tel/PDGF line has been described in the literature several times and in particular in detail in the article by CARROLL, M. et al., PNAS, 1996, 93, 14845-14850, CARROLL, M. et al., Blood 2002, 99, 14845-14850.
The BaF3 Tel/PDGF cells are washed with phosphate buffer and inoculated in 96-well plates, at the density of 5×10^4 cells/ml ([…]), in RPMI 1640 containing 10% FCS, in the presence or absence of the compounds to be tested. After 72 h of incubation, the viable cells are quantified by measuring the cellular ATP using the kit CellTiter-Glo®(Promega, Cat G7571). The cells are treated according to the instructions given by the kit supplier and the luminescence is measured with the aid of a Luminoskan (Ascent, Labsystem) with the following parameters: measurement: single; integration time: 1000 ms, lag time: 5 s.
It is thus apparent that the compounds according to the invention have an inhibitory activity on the PDGF-R beta tyrosine kinase activity. This activity is given by the concentration which inhibits 50% of the proliferation of the Baf3 tel/PDGF cells (IC50).

T1 sequence (P23443 1-421 T412E): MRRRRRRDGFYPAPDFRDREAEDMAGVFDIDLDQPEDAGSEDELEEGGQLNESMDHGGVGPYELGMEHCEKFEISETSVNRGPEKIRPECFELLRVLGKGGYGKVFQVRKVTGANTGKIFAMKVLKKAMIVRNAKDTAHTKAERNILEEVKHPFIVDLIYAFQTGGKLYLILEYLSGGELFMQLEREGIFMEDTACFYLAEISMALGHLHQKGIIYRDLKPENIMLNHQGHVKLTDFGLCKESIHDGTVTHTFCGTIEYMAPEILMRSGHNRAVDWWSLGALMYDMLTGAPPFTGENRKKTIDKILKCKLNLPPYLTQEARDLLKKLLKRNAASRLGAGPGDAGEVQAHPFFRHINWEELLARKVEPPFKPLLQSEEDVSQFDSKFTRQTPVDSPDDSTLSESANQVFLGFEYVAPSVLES
T2 sequence (P09619 with tags, fused parts or gaps): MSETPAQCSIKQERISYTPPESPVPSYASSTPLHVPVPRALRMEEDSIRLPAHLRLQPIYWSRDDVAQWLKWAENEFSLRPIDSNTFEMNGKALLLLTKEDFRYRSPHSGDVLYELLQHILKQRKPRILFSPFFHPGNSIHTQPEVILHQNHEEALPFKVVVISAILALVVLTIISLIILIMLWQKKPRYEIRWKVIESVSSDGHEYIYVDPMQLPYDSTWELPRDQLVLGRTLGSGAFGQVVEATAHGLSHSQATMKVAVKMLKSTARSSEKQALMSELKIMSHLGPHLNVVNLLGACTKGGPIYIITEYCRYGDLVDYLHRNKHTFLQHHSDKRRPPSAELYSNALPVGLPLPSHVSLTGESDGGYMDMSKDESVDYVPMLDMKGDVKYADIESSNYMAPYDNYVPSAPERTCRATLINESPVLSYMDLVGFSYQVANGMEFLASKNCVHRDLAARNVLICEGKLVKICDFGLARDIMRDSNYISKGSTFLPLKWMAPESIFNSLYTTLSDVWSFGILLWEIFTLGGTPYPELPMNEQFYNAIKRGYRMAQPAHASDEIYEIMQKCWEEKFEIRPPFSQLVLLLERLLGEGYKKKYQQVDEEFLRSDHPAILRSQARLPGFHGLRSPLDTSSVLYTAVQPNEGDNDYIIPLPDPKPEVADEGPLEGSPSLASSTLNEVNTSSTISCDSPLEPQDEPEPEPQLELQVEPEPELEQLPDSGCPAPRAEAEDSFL

SMILES	IC50 [1] [nM]	melting point [°C]	IC50 [2] [nM]
CCn1c(N)c(C(=O)NC)c(=O)c2ccc(-c3ccc(NS(=O)(=O)c4cccc(Cl)c4Cl)c(Cl)c3)nc21 [compound No. 8, 2-amino-7-(3-chloro-4-{[(2,3-dichlorophenyl)sulfonyl]amino}phenyl)-1-ethyl-N-methyl-4-oxo-1,4-dihydro-1,8-naphthyridine-3-carboxamide]	412	311	
CCn1c(N)c(C(=O)NC)c(=O)c2ccc(-c3ccc(NS(=O)(=O)c4cc(Cl)ccc4Cl)c(F)c3)nc21 [compound No. 9, 2-amino-7-(4-{[(2,5-dichlorophenyl)sulfonyl]amino}-3-fluorophenyl)-1-ethyl-N-methyl-4-oxo-1,4-dihydro-1,8-naphthyridine-3-carboxamide]	240	230	
CCn1c(N)c(C(=O)NC)c(=O)c2ccc(-c3ccc(NS(=O)(=O)c4cccc(Cl)c4Cl)cc3F)nc21 [compound No. 14, 2-amino-7-(4-{[(2,3-dichlorophenyl)sulfonyl]amino}-2-fluorophenyl)-1-ethyl-N-methyl-4-oxo-1,4-dihydro-1,8-naphthyridine-3-carboxamide]	224	340	
CCn1c(N)c(C(=O)NC)c(=O)c2ccc(-c3ccc(NS(=O)(=O)c4cccc(Cl)c4Cl)c(F)c3)nc21 [compound No. 18, 2-amino-7-(4-{[(2,3-dichlorophenyl)sulfonyl]amino}-3-fluorophenyl)-1-ethyl-N-methyl-4-oxo-1,4-dihydro-1,8-naphthyridine-3-carboxamide]	132	333	12
